Assay results published in patent publication US20200323823A1, “METHODS FOR THE TREATMENT OF DEPRESSION” (Praxis Precision Medicines, Inc., priority 2018, published 2020).
Read-outs that look alike come from different tables or passages of the source.

Legend:
[1] = clinical; settings: human, in vivo; for AUC(0-inf): AUCinf
Description: (§2) Healthy subjects aged 18 to 55 years were treated with an oral suspension of Compound 1 to study the safety, tolerability, pharmacokinetics and pharmacodynamics of Compound 1 in healthy subjects.
(§3) The study was a randomized, double-blind, placebo-controlled multiple escalating dose study comprised of 3 cohorts that each received an oral suspension. Each cohort consisted of two groups: one group treated with Compound 1 and another treated with placebo. In each cohort, the ratio of Compound 1-treated subjects to placebo-treated subjects was 3:1.
(§4) The Compound 1-treated subjects of Cohort 1 were treated with 15.0 mg of Compound 1 once per day (QD). The Compound 1-treated subjects of Cohort 2 were treated with 30.0 mg of Compound 1 QD. The Compound 1-treated subjects of Cohort 3 were treated with 60.0 mg of Compound 1 QD.
(§5) Patients in each cohort were treated with Compound 1 for 14 consecutive days, unless dosing was halted by the Safety Review Committee (SRC). The dosing of subjects in each of the cohorts was staggered with the decision to dose escalate based on SRC review of a minimum of 14 days of observation of safety and tolerability data and review of the available plasma PK data from the preceding cohort(s). Thus, dose escalation was predicated on tolerability of the prior cohorts.
(§6) Compound 1 was administered under fasted conditions (no food or drink, except water, for at least 10 hours prior to dosing). Immediately after administration of Compound 1, the subject was be administered 240 mL water. No additional fluid intake was allowed until 1 hour after Compound 1 administration.
(§7) Cohort 1 subjects received a single 15.0 mg dose of a Compound 1 suspension on the morning of Days 1-14. Cohort 2 subjects received a single 30.0 mg dose of a Compound 1 suspension on the morning of Days 1-14. Cohort 3 subjects received a single 60.0 mg dose of a Compound 1 suspension on the morning of Days 1-14. For all cohorts, the last treatment was administered on the morning of Day 14.
(§8) Data were obtained from the blood plasma samples collected from each cohort according to the schedule provided.
(§9) Plasma samples were analyzed to determine Compound 1 concentrations using a validated assay method. Pharmacokinetic variables (including but not limited to Cmax, Tmax and AUC(0-last)), were calculated using non-compartmental analysis. PK parameters for Compound 1 were derived from the plasma concentration data using non-compartmental analysis with Phoenix™ WinNonlin® v 8.0 (Pharsight Corporation, USA).
(§10) For each cohort, blood samples were collected on Days 1, 2, 3, 4, 5, 6 and 14 at the following time points: Day 1 at pre-dose (0 hour), 0.25, 0.5, 0.75, 1, 1.5, 2, 2.5, 3, 4, 6, 8, 12, 16 h post-dose; Day 2 at pre-dose (24 h), Day 3 at pre-dose (48 h), Day 4 at pre-dose (72 h), Day 5 at pre-dose (96 h), Day 6 at pre-dose (120 h); Day 14 at pre-dose 0.25, 0.5, 0.75, 1, 1.5, 2, 2.5, 3, 4, 6, 8, 12, 16, 24, 36, 48, and 72 hours. Trough level blood samples were collected on Days 2, 3, 4, 5, 6 and 14, prior to the morning dose administrations.
(§11) Descriptive statistics were calculated for plasma and urine PK parameter and concentration data, and summarized by study day and time point. Arithmetic means, coefficient of variation (CV), standard deviation, median, minimum, and maximum values, and number of observations were calculated for all PK parameters and trough concentration data. Except for Tmax, the geometric mean, geometric standard deviation, and geometric CV were provided for all PK parameter and concentration data.

[2] = Food Effect Cohort (Cohort 4), single 30 mg dose fasted vs high-fat, high calorie meal, plasma PK; settings: human, po, t 1/2, Cohort 4, single 30 mg oral, n = 10, Mean (SD)
Description: (§12) The Day 1 dose was administered after a minimum of 10 hour fasting. No additional fluid intake was allowed until 1 hour after drug administration. A standard meal was given at least 4 hours post-dose. The Day 5 dose was administered following a high-fat, high calorie meal. Participants remained at the clinical site for a total of 8 days to complete PK sampling after the second dose.
(§13) Pharmacokinetic variables (including but not limited to Cmax, Tmax and AUC(0-last)), were calculated using non-compartmental analysis.
(§14) Urine (Cohort 4): No urine analysis was conducted in Cohort 4.

[3] = Randomized, double-blind, placebo-controlled multiple escalating dose study, plasma PK of Compound 1 oral suspension (Cohorts 1-3); settings: for Vd/F: Vz/F
Description: as §2, §3, §4, §5, §6, §7, §8, §9, §10, §11

[4] = in vivo, po
Description: as §12, §13, §14

[5] = Safety/tolerability in MDD patients, Part A; assay type: in vivo, human; settings: 80 mg Cohort, compared to the 45 mg Cohort
Description: (§1) In Part A, participants were administered daily doses of Compound 1 (45 mg Cohort and 80 mg Cohort) at 4 PM on Day 1 and qHS on all other study days for 7 days inpatient followed by 7 days outpatient (with subsequent Cohorts receiving up to 120 mg qHS). Participants checked into the clinic on Day 1. During this period the following assessments were performed: adverse event assessments, vital signs, physical examinations, blood and urine samples for safety assessments, ECGs, C-SSRS assessments, blood samples for PK, and efficacy assessments (HAM-D, MADRS, HAM-A, CGI [CGI-S and CGI-I], PSQI, and SDQ). Baseline assessments occurred on Day 1 prior to administration of study drug. On Day 8, prior to discharge, participants were supplied with sufficient Compound 1 to complete 7 days of dosing.
Adverse events (AEs) will be monitored throughout the duration of the study.

[6] = tested on: patients with severe major depressive disorder (MDD); assay: Open-label study in severe MDD, Part A, HAM-D efficacy; assay type: in vivo, human
Description: The study is an open-label, study comprised of two dosing periods, Part A and Part B, during which patients were treated with an oral suspension of Compound 1. Part A was an open-label assessment of two dose levels of Compound 1 (45 mg qHS Cohort 1 and 80 mg qHS Cohort, i.e., once daily administration at bedtime) administered for 7 days inpatient followed by 7 days outpatient. PRAX-114 was administered at 4 PM on Day 1 in order to collect post-dosing PK samples that could not be collected with qHS dosing.
as §1
Patients were administered daily doses of Compound 1 for 7 days inpatient followed by 7 days outpatient.
In the 45 mg Cohort, patients were administered once daily dose of 45 mg of Compound 1 at bedtime for 7 days inpatient followed by once daily dose of 45 mg of Compound 1 at bedtime for 7 days outpatient.
In the 80 mg Cohort, patients were administered once daily dose of 80 mg of Compound 1 at bedtime for 7 days inpatient followed by once daily dose of 80 mg of Compound 1 at bedtime for 7 days outpatient.
In Part A, HAM-D, MADRS, HAM-A, CGI-S, and CGI-I values were collected in the morning of Days 1, 2, 3, 4, 5, 6, 7, 8, 15, 21 and 28. PSQI and SDQ values will be collected on Days 1, 8, 15, 21 and 28. Part B: In Part B, HAM-D, MADRS, HAM-A, CGI-S, CGI-I, PSQI and SDQ values will be collected on the days described for Part A.
HAM-D Response was defined as a reduction from baseline of ≥50% in total HAM-D score. HAM-D remission was defined as a total HAM-D score of ≤7.
For both parts of the clinical trial, the HAM-D total score and change from baseline values will be summarized by treatment group and time point. In addition, the change from baseline in HAM-D total score will also be analyzed using paired t-tests or similar methods. The null hypothesis of this test is that the mean difference in HAM-D total score between paired observations (i.e., pre- and post-treatment) is zero. Similar analysis methods will be used for all secondary and exploratory efficacy variables.

[7] = human, in vivo
Description: as §2, §3, §4, §5, §6, §7, §8, §9, §10, §11

[8] = Cohort 1, 15.0 mg QD oral, Day 14, Mean
[9] = Cohort 2, 30.0 mg QD oral, Day 14, Mean

In the case of `COC[C@@]1(O)CC[C@@]2(C)[C@@H](CC[C@@H]3[C@@H]2CC[C@]2(C)[C@@H](C(=O)Cn4ccnc4)CC[C@@H]32)C1` [Compound 1, 3α-Hydroxy-3β-methoxymethyl-21-(1′-imidazolyl)-5α-pregnan-20-one], the Tmax [1] is reported as at most 2 h, the AUC ([1]; po, 15 mg, AUC0-tau) is reported as 362 ng·h/mL and the AUC(0-inf) ([1]; po, 15 mg) is reported as 600 ng·h/mL. The AUC ([1]; po, 15 mg, AUCss) was 492 ng·h/mL, the Cmax ([1]; po, 15 mg) was 56 ng/mL and the Cmax ([1]; po, 15 mg, ss) was 65 ng/mL. It also gave a Tmax ([1]; po, 15 mg) of 1.03 h, a Tmax ([1]; po, 15 mg, ss) of 1.07 h and an AUC ([1]; po, 30 mg, AUC0-tau) of 842 ng·h/mL. The AUC(0-inf) ([1]; po, 30 mg) was 1230 ng·h/mL, the AUC ([1]; po, 30 mg, AUCss) was 1020 ng·h/mL and the Cmax ([1]; po, 30 mg) was 133 ng/mL. For the same compound, the Cmax ([1]; po, 30 mg, ss) was 164 ng/mL, the Tmax ([1]; po, 30 mg, ss) was 0.964 h and the AUC ([1]; po, 60 mg, AUC0-tau) was 2340 ng·h/mL. For the same compound, the AUC(0-inf) ([1]; po, 60 mg) was 2370 ng·h/mL, the AUC ([1]; po, 60 mg, AUCss) was 2080 ng·h/mL and the Cmax ([1]; po, 60 mg) was 364 ng/mL. It also gave a Cmax ([1]; po, 60 mg, ss) of 355 ng/mL, a Tmax ([1]; po, 60 mg) of 1.14 h and a Tmax ([1]; po, 60 mg, ss) of 0.969 h. For the same compound, the half-life ([2]; Fasted (Day 1)) was 673 min, the half-life ([2]; Fed (Day 1 as printed)) was 676 min and the CLss/F ([3]; Cohort 1, 15.0 mg QD oral, Day 14, Geo Mean) was 30.497 L/h. It also gave a CLss/F [3, 8] of 31.415 L/h, a t1/2 [3, 8] of 14.772 h and a CLss/F ([3]; Cohort 1, 15.0 mg QD oral, Day 14, Median) of 30.41 L/h. It also gave a CLss/F ([3]; Cohort 2, 30.0 mg QD oral, Day 14, Geo Mean) of 30.178 L/h, a CLss/F [3, 9] of 30.949 L/h and a t1/2 [3, 9] of 12.701 h. For the same compound, the CLss/F ([3]; Cohort 2, 30.0 mg QD oral, Day 14, Median) was 30.12 L/h, the CLss/F ([3]; Cohort 3, 60.0 mg QD oral, Day 14, Geo Mean) was 30.398 L/h and the CLss/F ([3]; Cohort 3, 60.0 mg QD oral, Day 14, Mean) was 32.142 L/h. It also gave a CLss/F ([3]; Cohort 3, 60.0 mg QD oral, Day 14, Median) of 28.45 L/h, a Vd/F ([3]; human, plasma, po, 15 mg, Cohort 1, 15.0 mg QD oral, Day 14, Geo Mean) of 643 L and a Vd/F ([3]; human, plasma, po, 15 mg, Cohort 1, 15.0 mg QD oral, Day 14, Mean) of 655 L. For the same compound, the Vd/F ([3]; human, plasma, po, 15 mg, Cohort 1, 15.0 mg QD oral, Day 14, Median) was 657 L, the half-life ([3]; human, plasma, po, 15 mg, t1/2, Cohort 1, 15.0 mg QD oral, Day 14, Geo Mean) was 877 min and the half-life ([3]; human, plasma, po, 15 mg, t1/2, Cohort 1, 15.0 mg QD oral, Day 14, Mean) was 886 ± 136 min. The half-life ([3]; human, plasma, po, 15 mg, t1/2, Cohort 1, 15.0 mg QD oral, Day 14, Median) was 916 min, the Cmax ([3]; human, plasma, po, 30 mg, Cmax, Cohort 2, 30.0 mg QD oral, Day 1, Geometric Mean) was 120 ng/mL and the Vd/F ([3]; human, plasma, po, 30 mg, Cohort 2, 30.0 mg QD oral, Day 14, Geo Mean) was 551 L. For the same compound, the Vd/F ([3]; human, plasma, po, 30 mg, Cohort 2, 30.0 mg QD oral, Day 14, Mean) was 570 L, the Vd/F ([3]; human, plasma, po, 30 mg, Cohort 2, 30.0 mg QD oral, Day 14, Median) was 514 L and the half-life ([3]; human, plasma, po, 30 mg, t1/2, Cohort 2, 30.0 mg QD oral, Day 14, Geo Mean) was 759 min. The half-life ([3]; human, plasma, po, 30 mg, t1/2, Cohort 2, 30.0 mg QD oral, Day 14, Mean) was 762 ± 73.8 min, the half-life ([3]; human, plasma, po, 30 mg, t1/2, Cohort 2, 30.0 mg QD oral, Day 14, Median) was 774 min and the Vd/F ([3]; human, plasma, po, 60 mg, Cohort 3, 60.0 mg QD oral, Day 14, Geo Mean) was 533 L. The Vd/F ([3]; human, plasma, po, 60 mg, Cohort 3, 60.0 mg QD oral, Day 14, Mean) was 574 L, the Vd/F ([3]; human, plasma, po, 60 mg, Cohort 3, 60.0 mg QD oral, Day 14, Median) was 531 L and the half-life ([3]; human, plasma, po, 60 mg, t1/2, Cohort 3, 60.0 mg QD oral, Day 14, Geo Mean) was 730 min. It also gave a half-life ([3]; human, plasma, po, 60 mg, t1/2, Cohort 3, 60.0 mg QD oral, Day 14, Mean) of 734 ± 79.2 min, a half-life ([3]; human, plasma, po, 60 mg, t1/2, Cohort 3, 60.0 mg QD oral, Day 14, Median) of 745 min and a half-life ([3]; human, plasma, po, mean t1/2, steady state, across Cohorts 1-3 (15.0-60.0 mg QD oral)) of 734 to 886 min. For the same compound, the Tmax ([4]; human) was 1.00 (0.75, 1.77) h, the “Cmax higher under fasting conditions compared to fed conditions” value ([4]; human, 30 mg) was 1.5-1.6 times and the “t½, fasted versus fed conditions” value [4] was “similar”. For the same compound, the “tolerability / Adverse Event profile” value [5] was “well tolerated with no change in Adverse Event profile”, the “least squares Mean Change from Baseline in HAM-D score” value (from here on “least squares Mean Change”) ([6]; 45 mg Cohort, Day 7) was −17.8 and the “least squares Mean Change” value ([6]; 45 mg Cohort, Day 15) was −13.2. For the same compound, the “patients who met the HAM-D Response or Remission criterion” value ([6]; 45 mg Cohort, once daily at bedtime, Day 7) was 11 of the 13, the “patients who met the HAM-D Response or Remission criteria” value ([6]; 45 mg Cohort, once daily at bedtime, Day 15) was 8 of the 13 and the “least squares Mean Change” value ([6]; 80 mg Cohort, Day 7) was −20.0. The “least squares Mean Change” value ([6]; 80 mg Cohort, Day 15) was −16.0, the “patients who met the HAM-D Response or Remission criteria” value ([6]; 80 mg Cohort, once daily at bedtime, Day 15) was 6 of the 7 and the “Efficacy by background antidepressant” value ([6]; as monotherapy and in combination with another antidepressant) was “Efficacy was observed”. For the same compound, the “symptoms of moderate to severe MDD” value ([6]; daily dose of 45 mg or 80 mg) was “exhibited reduced symptoms of moderate to severe MDD”, the “dose dependence of Cavg, AUCss and AUCinf” value [7] was “proportional increase” and the “dose dependence of Cmax and AUC parameters at steady state” value ([7]; po) was “approximate proportional increase”. The steady state clearance ([7]; po) was “approximately 31 L/h”, the “accumulation factor of the dosing interval (ratio of AUCDay 14/AUCDay 1)” value ([7]; po, 15 mg) was “approximately 1.25” and the Cmax ([7]; po, 30 mg) was 156.00 ng/mL. For the same compound, the “accumulation factor of the dosing interval (ratio of AUCDay 14/AUCDay 1)” value ([7]; po, 30 mg) was “approximately 1.25”, the Tmax ([7]; po, 60 mg) was 1.00 h and the “accumulation factor of the dosing interval (ratio of AUCDay 14/AUCDay 1)” value ([7]; po, 60 mg) was 0.89.
